Here are results for twelve molecules from PubChem BioAssay (NCI).

Holding throughout (assay): inhibition of tumour cell growth, NCI panel, 48 h
Assay [1] deals with UACC-62 melanoma.
The test system of assay [2] is SR leukemia.
In assay [3] the test system is SW-620 colon.
The subject of assay [4] is HOP-92 NSCLC.
Assay [5] has as its system NCI-H522 lung.
The test system of assay [6] is HT29 colon.
Assay [7] has as its system HCT-15 colon.
In assay [8] the test system is 786-0 renal.
Assay [9] deals with NCI-H460 lung.
Assay [10] relates to KM12 colon.
Assay [11] concerns UACC-257 melanoma.

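All cell lines were grown in 96-well plates and treated with compound for 48 hours. TGI: concentration producing complete growth inhibition.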

Regarding `CC1(C)CC2=C(Sc3ccccc3N2)C(=O)C1C(=O)C(=O)Nc1cc(Cl)ccc1Cl` (centres undefined), the TGI in assay [1], in [2], in [3], in assay [4], in assay [5] and in assay [6] was > 100 µM each time. Moreover, the TGI was > 100 µM in [7]; > 100 µM in assay [8]; 28.1 µM in assay [9]; > 100 µM in assay [10]; > 100 µM in assay [11].
Turning to `Cc1cc(S(=O)(=O)Nc2nc3ccccc3n2-c2ccccc2)c(S)cc1Cl`, the TGI in assay [1], in [2], in assay [3], in [4], in assay [5] and in assay [7] was > 100 µM each time. Besides, the TGI in assay [8], in [9], in [10] and in assay [11] was > 100 µM throughout.
As to `COc1cc(OC)c2c(O)c(S(=O)(=O)c3ccc(C)cc3)c(=O)oc2c1`, the TGI in [1], in assay [2], in [3], in [4], in assay [5] and in [6] was > 100 µM each time. Also, the TGI in [7], in assay [8], in assay [9], in assay [10] and in assay [11] was > 100 µM each time.
For `Cc1nn(C(=O)c2ccncc2)c2c1C(c1cccc([N+](=O)[O-])c1)SC(N)=N2` (centres undefined), the TGI in assay [1], in [2], in [3], in [4], in [5] and in assay [6] was > 10 µM in each case. Further, the TGI in assay [7], in assay [8], in assay [9], in assay [10] and in assay [11] was > 10 µM each time.
Turning to `CN(C)Cc1cc(C(=O)/C=C/c2cccc(Cl)c2)cc(CN(C)C)c1O`, the TGI is 22.3 µM in assay [1]; 6.93 µM in assay [2]; 17.5 µM in assay [3]; 18.2 µM in assay [4]; 33 µM in assay [5]; 16.6 µM in [6]. In addition, the TGI in assay [7] stood at 12.7 µM; in [8] it was 15.7 µM; in assay [9], 11.4 µM; in [10], 19.7 µM; in assay [11], 19.9 µM.
Regarding `c1csc(-c2csc(-c3ccsc3)c2)c1`, the TGI in assay [1], in assay [2], in [3], in [4], in assay [5] and in assay [6] was > 100 µM throughout. Besides, the TGI in [7], in assay [8], in assay [9], in assay [10] and in assay [11] was > 100 µM in each case.
Take `CSc1ncc2c(n1)-c1ccccc1OC2NC(C)(C)C` (centres undefined): the TGI in assay [1] is > 100 µM; in [2], > 100 µM; in assay [3], > 100 µM; in [4], > 100 µM; in assay [5], 74.5 µM; in assay [6], > 100 µM. In addition, the TGI in assay [7], in assay [8], in assay [9], in [10] and in assay [11] was > 100 µM throughout.
Take `COc1cc([C@H]2Oc3c(OC)cc(CCCO)cc3[C@@H]2CO)ccc1O`: the TGI in [1], in [2], in assay [3], in [4], in assay [5] and in [6] was > 100 µM in each case. The TGI in assay [7], in assay [8], in assay [9], in assay [10] and in [11] was > 100 µM in each case.
With `C=CC(C)(C)c1cc([C@@H]2COc3cc(O)ccc3C2=O)c(O)c(O)c1OC`, the TGI in assay [1] is 34.4 µM; in assay [2] it was > 100 µM; in assay [3], > 100 µM; in assay [4], 49.4 µM; in assay [5], 38.1 µM; in [6] it was 47.4 µM. The TGI in assay [7] was 32 µM; in assay [8] it was 31.6 µM; in [9], > 100 µM; in assay [10], 40.7 µM; in assay [11], > 100 µM.
`CNC(=S)N/N=C(\C)c1nc2ncccc2[nH]1`: the TGI in assay [2] is > 100 µM; in assay [3], > 100 µM; in assay [4], > 100 µM; in assay [5], > 73.3 µM; in assay [6], > 100 µM; in [7], > 100 µM. Further, the TGI in [8], in assay [9], in [10] and in [11] was > 100 µM throughout.
Consider `CC(NNC(=O)c1ccncc1)c1ccc(Cl)c(Cl)c1` (centres undefined), for which the TGI in assay [1], in assay [2], in assay [3], in [4], in assay [5] and in assay [6] was > 100 µM each time. In addition, the TGI in assay [7], in assay [8], in assay [9], in assay [10] and in [11] was > 100 µM each time.
`CSc1nc(C#N)c(N)n1C`: the TGI in assay [1], in assay [2], in [3], in assay [4], in assay [5] and in assay [7] was > 100 µM each time. In addition, the TGI in assay [8], in [9], in [10] and in [11] was > 100 µM in each case.
